Consider 19 compounds from US10927141B2 (priority 2018, dated 2021).

Data set [1] is classed as physicochemical.
The format of data set [2] is physicochemical. The conditions noted are these: 1 w. The procedure: For each salt, approximately 5 mg compound was added into an 8 mL glass vial with a multi-hole aluminum foil cap, and kept at 60° C., 40° C./75% RH for 1 week. […] Appearance by visual observation were recorded followed by purity assessment and XPRD data collection on the residual solids.

Like-named read-outs stand apart in the source and are kept apart here.

`CCS(=O)(=O)O.COCC1(O)CCC2(C)C(CCC3C2CCC2(C)C(C(=O)Cn4ccnc4)CCC32)C1` (stereo not drawn) [Ethanesulfonate (Form A)]: the Final purity was determined as 97.7 in data set [1] (1.2 million lux-hrs), 97.4 in data set [1] (Dark control), 98.0 in data set [2] (40° C./75% RH) and 98.2 in data set [2] (60° C.). The XRPD patterns entry in data set [1] (1.2 million lux-hrs), in data set [1] (Dark control), in data set [2] (40° C./75% RH) and in data set [2] (60° C.) was “Form A” each time.
Regarding `COC[C@@]1(O)CC[C@@]2(C)[C@@H](CC[C@@H]3[C@@H]2CC[C@]2(C)[C@@H](C(=O)Cn4ccnc4)CC[C@@H]32)C1.Cl` [Hydrochloride (Form A)], the Final purity in data set [1] (1.2 million lux-hrs) was found to be 99.5; in data set [1] (Dark control), 99.5; in data set [2] (40° C./75% RH), 99.4; in data set [2] (60° C.) it was 99.5. For the same compound, the XRPD patterns result in data set [1] (1.2 million lux-hrs), in data set [1] (Dark control), in data set [2] (40° C./75% RH) and in data set [2] (60° C.) was “Form A” throughout.
Regarding `COC[C@@]1(O)CC[C@@]2(C)[C@@H](CC[C@@H]3[C@@H]2CC[C@]2(C)[C@@H](C(=O)Cn4ccnc4)CC[C@@H]32)C1.O=C(O)C(O)C(O)C(=O)O` [L(+)-Tartrate (Form B)], the Final purity in data set [1] (1.2 million lux-hrs) came out at 99.3; in data set [1] (Dark control), 99.2; in data set [2] (40° C./75% RH), 99.2; in data set [2] (60° C.), 99.2. Also, the XRPD patterns entry in data set [1] (1.2 million lux-hrs), in data set [1] (Dark control), in data set [2] (40° C./75% RH) and in data set [2] (60° C.) was “Form B” in each case.
As to `COCC1(O)CCC2(C)C(CCC3C2CCC2(C)C(C(=O)Cn4ccnc4)CCC32)C1.O=CC(O)C(O)C(O)C(O)C(=O)O` (stereo not drawn) [Glucuronate (Form A)], the Final purity amounted to 97.5 in data set [1] (1.2 million lux-hrs), 97.5 in data set [1] (Dark control), 98.0 in data set [2] (40° C./75% RH) and 96.7 in data set [2] (60° C.). Moreover, the XRPD patterns result in data set [1] (1.2 million lux-hrs), in data set [1] (Dark control), in data set [2] (40° C./75% RH) and in data set [2] (60° C.) was “Form A” in each case.
As for `COCC1(O)CCC2(C)C(CCC3C2CCC2(C)C(C(=O)Cn4ccnc4)CCC32)C1.Nc1ccc(C(=O)O)c(O)c1` (stereo not drawn) [P-aminosalicylate (Form A)], the Final purity turned out to be 95.7 in data set [1] (1.2 million lux-hrs), 95.8 in data set [1] (Dark control), 97.0 in data set [2] (40° C./75% RH) and 91.5 in data set [2] (60° C.). Besides, the XRPD patterns result in data set [1] (1.2 million lux-hrs), in data set [1] (Dark control), in data set [2] (40° C./75% RH) and in data set [2] (60° C.) was “Form A” each time.
Take `COCC1(O)CCC2(C)C(CCC3C2CCC2(C)C(C(=O)Cn4ccnc4)CCC32)C1.O=C(O)c1cc(O)ccc1O` (stereo not drawn) [Gentisate salt (Form A)]: the Final purity in data set [1] (1.2 million lux-hrs) turned out to be 96.0; in data set [1] (Dark control) it was 97.6; in data set [2] (40° C./75% RH) it was 97.6; in data set [2] (60° C.), 97.0. The XRPD patterns entry in data set [1] (1.2 million lux-hrs), in data set [1] (Dark control), in data set [2] (40° C./75% RH) and in data set [2] (60° C.) was “Form A” in each case.
Take `COCC1(O)CCC2(C)C(CCC3C2CCC2(C)C(C(=O)Cn4ccnc4)CCC32)C1.Cl` (stereo not drawn) [Hydrochloride (Form B)]: the Final purity in data set [1] (1.2 million lux-hrs) is listed as 98.2; in data set [1] (Dark control) it was 98.59; in data set [2] (40° C./75% RH), 100.0; in data set [2] (60° C.), 100.0. Moreover, the XRPD patterns result in data set [1] (1.2 million lux-hrs), in data set [1] (Dark control) and in data set [2] (60° C.) was “Form B” throughout.
With `COC[C@@]1(O)CC[C@@]2(C)[C@@H](CC[C@@H]3[C@@H]2CC[C@]2(C)[C@@H](C(=O)Cn4ccnc4)CC[C@@H]32)C1.O=C(O)CC(=O)O` [Malonate (Form A)], the Final purity is 98.2 in data set [1] (1.2 million lux-hrs), 99.0 in data set [1] (Dark control), 98.5 in data set [2] (40° C./75% RH) and 97.0 in data set [2] (60° C.). The XRPD patterns entry in data set [1] (1.2 million lux-hrs), in data set [1] (Dark control), in data set [2] (40° C./75% RH) and in data set [2] (60° C.) was “Form A” each time.
Consider `COC[C@@]1(O)CC[C@@]2(C)[C@@H](CC[C@@H]3[C@@H]2CC[C@]2(C)[C@@H](C(=O)Cn4ccnc4)CC[C@@H]32)C1.O=C1O[C@H]([C@@H](O)CO)C(O)=C1O` [Ascorbate (Form A)], for which the Final purity in data set [1] (1.2 million lux-hrs) is on record as 96.8; in data set [1] (Dark control), 96.8; in data set [2] (40° C./75% RH) it was 96.4; in data set [2] (60° C.) it was 95.7. In addition, the XRPD patterns result in data set [1] (1.2 million lux-hrs), in data set [1] (Dark control), in data set [2] (40° C./75% RH) and in data set [2] (60° C.) was “Form A” throughout.
Regarding `COCC1(O)CCC2(C)C(CCC3C2CCC2(C)C(C(=O)Cn4ccnc4)CCC32)C1.O=C(O)c1ccc2ccccc2c1O` (stereo not drawn) [1-hydroxy-2-napthoate (Form A)], the Final purity in data set [1] (1.2 million lux-hrs) is on record as 92.64; in data set [1] (Dark control), 91.96; in data set [2] (40° C./75% RH), 92.64; in data set [2] (60° C.), 88.91. Besides, the XRPD patterns entry in data set [1] (1.2 million lux-hrs), in data set [1] (Dark control), in data set [2] (40° C./75% RH) and in data set [2] (60° C.) was “Form A” each time.
For `COCC1(O)CCC2(C)C(CCC3C2CCC2(C)C(C(=O)Cn4ccnc4)CCC32)C1.O=C(O)C(Cl)Cl` (stereo not drawn) [Dichloroacetate (Form A)], the Final purity in data set [1] (1.2 million lux-hrs) came to 96.4; in data set [1] (Dark control), 97.3; in data set [2] (40° C./75% RH), 98.0; in data set [2] (60° C.) it was 96.3. Besides, the XRPD patterns entry in data set [1] (1.2 million lux-hrs), in data set [1] (Dark control), in data set [2] (40° C./75% RH) and in data set [2] (60° C.) was “Form A” each time.
Consider `COC[C@@]1(O)CC[C@@]2(C)[C@@H](CC[C@@H]3[C@@H]2CC[C@]2(C)[C@@H](C(=O)Cn4ccnc4)CC[C@@H]32)C1.O=P(O)(O)O` [Phosphate (Form A)], for which the Final purity is 98.9 in data set [1] (1.2 million lux-hrs), 99.2 in data set [1] (Dark control), 99.2 in data set [2] (40° C./75% RH) and 99.2 in data set [2] (60° C.). In addition, the XRPD patterns entry in data set [1] (1.2 million lux-hrs), in data set [1] (Dark control), in data set [2] (40° C./75% RH) and in data set [2] (60° C.) was “Form A” each time.
As to `COCC1(O)CCC2(C)C(CCC3C2CCC2(C)C(C(=O)Cn4ccnc4)CCC32)C1.Cc1ccc(S(=O)(=O)O)cc1` (stereo not drawn) [Tosylate (Form A)], the Final purity in data set [1] (1.2 million lux-hrs) is 99.0; in data set [1] (Dark control), 99.5; in data set [2] (40° C./75% RH) it was 99.5; in data set [2] (60° C.), 99.5. The XRPD patterns entry in data set [1] (1.2 million lux-hrs), in data set [1] (Dark control) and in data set [2] (60° C.) was “Form A” in each case.
For the compound `COCC1(O)CCC2(C)C(CCC3C2CCC2(C)C(C(=O)Cn4ccnc4)CCC32)C1.O=S(=O)(O)CCO` (stereo not drawn) [Isethionate (Form A)], the Final purity in data set [1] (1.2 million lux-hrs) was found to be 98.9; in data set [1] (Dark control), 98.8; in data set [2] (40° C./75% RH) it was 98.5; in data set [2] (60° C.) it was 98.7. In addition, the XRPD patterns entry in data set [1] (1.2 million lux-hrs), in data set [1] (Dark control), in data set [2] (40° C./75% RH) and in data set [2] (60° C.) was “Form A” each time.
As to `COC[C@@]1(O)CC[C@@]2(C)[C@@H](CC[C@@H]3[C@@H]2CC[C@]2(C)[C@@H](C(=O)Cn4ccnc4)CC[C@@H]32)C1.O=S(=O)(O)O` [Sulfate (Form A)], the Final purity in data set [1] (1.2 million lux-hrs) was 97.1; in data set [1] (Dark control), 97.6; in data set [2] (40° C./75% RH) it was 97.5; in data set [2] (60° C.) it was 96.2. Moreover, the XRPD patterns result in data set [1] (1.2 million lux-hrs), in data set [1] (Dark control), in data set [2] (40° C./75% RH) and in data set [2] (60° C.) was “Form A” each time.
For `COCC1(O)CCC2(C)C(CCC3C2CCC2(C)C(C(=O)Cn4ccnc4)CCC32)C1.O=C(O)C(O)C(O)C(=O)O` (stereo not drawn) [L(+)-Tartrate (Form A)], the Final purity in data set [1] (1.2 million lux-hrs) amounted to 99.4; in data set [1] (Dark control), 99.2; in data set [2] (40° C./75% RH), 99.3; in data set [2] (60° C.), 99.3. Further, the XRPD patterns entry in data set [1] (1.2 million lux-hrs), in data set [1] (Dark control), in data set [2] (40° C./75% RH) and in data set [2] (60° C.) was “Form A” throughout.
Regarding `COCC1(O)CCC2(C)C(CCC3C2CCC2(C)C(C(=O)Cn4ccnc4)CCC32)C1.O=S(=O)(O)c1ccc2ccccc2c1` (stereo not drawn) [Napsylate (Form A)], the Final purity in data set [1] (1.2 million lux-hrs) came out at 99.0; in data set [1] (Dark control), 99.1; in data set [2] (40° C./75% RH) it was 99.1; in data set [2] (60° C.), 99.1. For the same compound, the XRPD patterns result in data set [1] (1.2 million lux-hrs), in data set [1] (Dark control), in data set [2] (40° C./75% RH) and in data set [2] (60° C.) was “Form A” throughout.
As to `COCC1(O)CCC2(C)C(CCC3C2CCC2(C)C(C(=O)Cn4ccnc4)CCC32)C1.O=C(O)CC(O)C(=O)O` [L-Malate (Form A)], the Final purity in data set [1] (1.2 million lux-hrs) stood at 99.3; in data set [1] (Dark control) it was 99.3; in data set [2] (40° C./75% RH), 99.2; in data set [2] (60° C.), 99.6. In addition, the XRPD patterns entry in data set [1] (1.2 million lux-hrs), in data set [1] (Dark control), in data set [2] (40° C./75% RH) and in data set [2] (60° C.) was “Form A” in each case.
Regarding `COCC1(O)CCC2(C)C(CCC3C2CCC2(C)C(C(=O)Cn4ccnc4)CCC32)C1.Cl` (stereo not drawn) [Hydrochloride (Form C)], the Final purity is 100.0 in data set [1] (1.2 million lux-hrs), 99.2 in data set [1] (Dark control), 100.0 in data set [2] (40° C./75% RH) and 98.6 in data set [2] (60° C.). Besides, the XRPD patterns entry in data set [1] (1.2 million lux-hrs), in data set [1] (Dark control), in data set [2] (40° C./75% RH) and in data set [2] (60° C.) was “Form C” in each case.
